From patent publication US20230235374A1, “High Throughput Assays for Detecting Translation Readthrough Inducers” (The Trustees of the University of Pennsylvania, priority 2021, published 2023) come the findings set out here.

Structures are written as SMILES.

The subject of test [1] is Cy5-hRF1.hRF3.GTP binding to Stop-POST5. Briefly: smFRET Cy5-hRF1.hRF3.GTP binding to Stop-POST5. The arrangement: species or system human. Conditions: ataluren 1 mM, FIG. 15C. From the text: Several important results have been obtained with Cy5-heRF1 which further elucidate the mechanism of termination shown in FIGS. 14A and 14B. Cy5-heRF1 forms a catalytically active RFC with unlabeled heRF3, which, when added to the Stop-POST5 complex, generated a transient FRET signal with FKVRQ-tRNA^Gln(Cy3) bound in the P-site (FIGS. 15A and 15B).

Test [2] relates to rRNA fragments I-IV of 80S-IRES. The experiment in a line: RNaseH fragment assay, 80S-IRES. It counts as binding, shrimp (Artemia salina). To be noted: PAL, 300 μM AzAt, alone or plus competing ligand named as label. On the procedure:
RNaseH Fragment Assay. Total RNA was prepared from the ^3H-AzAt photoaffinity labeled ribosome by phenol-chloroform extraction. RNA: DNA duplexes were formed by incubating total RNA (0.2 μM) with an oligonucleotide pair (1 μM of each, sequences shown Table 1), flanking a specific RNA region, in 22.8 μL of water at 95° C. for 2 min, followed by annealing at 50° C. for 30 s and quenching on ice. Six units (1.2 μL) of RNase H (NEB) and 6 μl of 5×RNase H Reaction Buffer were next added to the RNA: DNA duplex and incubated at 37° C. for 1 hour, followed by phenol-chloroform extraction of RNA. The digested RNA was separated on 12% TBE-Urea PAGE gel, and the target band along with the adjacent upper and bottom gels were sliced by a 2 mm gel cutter. The gel slices were crushed and the ^3H labeled rRNA fragment was extracted in water by vigorously shaking at 70° C. for 30 min, or by overnight extraction in elution buffer (0.3M sodium acetate, 0.25% SDS, 1 mM EDTA). The slurry was removed by centrifugation and the eluted ^3H labeled rRNA in the supernatant was quantified. The stoichiometry of AzAt photoincorporation was calculated based on a gel recovery yield of 20±2%, determined using an authentic sample of [^3H]-Gln-tRNA^Gln.
Testing the functional pertinence of AzAt photolabeling of 18S A1195, 28S-A3093, 28S-A2672, and 28S-2669. An RNAse H fragment assay was employed to determine whether the potential functionally significant sites identified by LASER-seq correspond to ataluren binding sites relevant for termination activity. In this assay, oligonucleotide hybridization, RNase H digestion and polyacrylamide gel electrophoresis (PAGE) were used to determine the stoichiometry of [^3H]-AzAt photoincorporation into the three rRNA fragments that together include the four nucleotides of interest: Fragment I, 18S-A1195; Fragment II, 26S-A3093; Fragment III, 26S-A2669 and 26S-A2672 (Table 5). The separate addition of four potential competitors of AzAt binding (eRF1 alone, the stably bound eRF1.eRF3.GDPNP complex, ataluren, and the ataluren-like TRID GJ072) was used to test how these affected such photoincorporation. These experiments, the results of which are summarized in Table 5, were performed at two different AzAt concentrations. eRF1 and eRF1.eRF3.GDPNP effects were measured using 300 μM AzAt, paralleling the LASER-Seq PAL experiments.

As to `O=C(O)c1cccc(-c2noc(-c3ccccc3F)n2)c1` [Ataluren], the “effect on rate of Cy5-hRF1.hRF3.GTP binding to Stop-POST5” value in test [1] is listed as “strongly inhibited”.

Regarding `[N-]=[N+]=Nc1ccc(-c2nc(-c3cccc(C(=O)O)c3)no2)cc1` [AzAt], in test [2] (80S-IRES), the “Photoincorporation yields into 18S A1195/ I: 18S 1151-1206” value was 1.03 ± 0.33 mole %, the “Photoincorporation yields into 26S-A2669:A2672/ III: 26S 2638-2702” value stood at 1.01 ± 0.12 mole % and the “Photoincorporation yields into 26S-A3093/ II: 26S 3069-3113” value stood at 0.50 ± 0.09 mole %. The “Photoincorporation yields into RNAse H Fragment IV: 26S 1413-1476” value in test [2] (80S.IRES) is 0.29 ± 0.11%.
